According to paper PMC5547389, “Structure-activity relationships and molecular docking studies of chromene and chromene based azo chromophores: A novel series of potent antimicrobial and anticancer agents” (EXCLI Journal, 2017):

Key:
[1] = tested on: Aspergillus fumigatus (RCMB 02568); test: Well diffusion assay (inhibition zone); format: cell-based; settings: RCMB02568, 5 mg/mL in DMSO, fungi, read-out: Inhibition Zone (IZ) diameter, A.F
How it was run: (§1)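 Agar well diffusion with 10 mm wells, nutrient agar for bacteria and malt extract agar for fungi. Plates were incubated 24-48 h at 37 °C for bacteria or 28 °C for fungi. Inhibition zone diameters were measured in mm, in triplicate.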

[2] = tested on: Bacillus subtilis (RCMB 010067); test: Well diffusion assay (inhibition zone); format: cell-based; settings: RCMB010067, 5 mg/mL in DMSO, Gm+ve, read-out: Inhibition Zone (IZ) diameter, B.S
How it was run: as §1

[3] = tested on: Escherichia coli (RCMB 010052); test: Well diffusion assay (inhibition zone); format: cell-based; settings: RCMB010052, 5 mg/mL in DMSO, Gm-ve, read-out: Inhibition Zone (IZ) diameter, E.C
How it was run: as §1

[4] = tested on: Geotricum candidum (RCMB 05097); test: Well diffusion assay (inhibition zone); format: cell-based; settings: 5 mg/mL in DMSO; fungi; read-out: Inhibition Zone (IZ) diameter, G.C
How it was run: as §1

[5] = tested on: Streptococcus pneumoniae (RCMB 010010); test: Well diffusion assay (inhibition zone); format: cell-based; settings: RCMB010010, 5 mg/mL in DMSO, Gm+ve, read-out: Inhibition Zone (IZ) diameter, S.P
How it was run: as §1

[6] = tested on: Syncephalastrum racemosum (RCMB 05922); test: Well diffusion assay (inhibition zone); format: cell-based; settings: RCMB05922, 5 mg/mL in DMSO, fungi, read-out: Inhibition Zone (IZ) diameter, S.R
How it was run: as §1

[7] = biological target: T1, DNA gyrase from Escherichia coli (Escherichia coli, UniProt P0AES4+P0AES6); test: In vitro inhibitory activity screening of E. coli DNA gyrase; format: biochemical; settings: for remaining activity at 10 µM: 10 μM of compound, read-out: DNA Gyrase Residual activity RA (10 μM); for remaining activity at 100 µM: read-out: DNA Gyrase Residual activity RA (100 μM)
T1 construct: purchased Inspiral is Ltd (Norwich, United Kingdom)
T1 sequence (P0AES4 whole entry, one chain of several): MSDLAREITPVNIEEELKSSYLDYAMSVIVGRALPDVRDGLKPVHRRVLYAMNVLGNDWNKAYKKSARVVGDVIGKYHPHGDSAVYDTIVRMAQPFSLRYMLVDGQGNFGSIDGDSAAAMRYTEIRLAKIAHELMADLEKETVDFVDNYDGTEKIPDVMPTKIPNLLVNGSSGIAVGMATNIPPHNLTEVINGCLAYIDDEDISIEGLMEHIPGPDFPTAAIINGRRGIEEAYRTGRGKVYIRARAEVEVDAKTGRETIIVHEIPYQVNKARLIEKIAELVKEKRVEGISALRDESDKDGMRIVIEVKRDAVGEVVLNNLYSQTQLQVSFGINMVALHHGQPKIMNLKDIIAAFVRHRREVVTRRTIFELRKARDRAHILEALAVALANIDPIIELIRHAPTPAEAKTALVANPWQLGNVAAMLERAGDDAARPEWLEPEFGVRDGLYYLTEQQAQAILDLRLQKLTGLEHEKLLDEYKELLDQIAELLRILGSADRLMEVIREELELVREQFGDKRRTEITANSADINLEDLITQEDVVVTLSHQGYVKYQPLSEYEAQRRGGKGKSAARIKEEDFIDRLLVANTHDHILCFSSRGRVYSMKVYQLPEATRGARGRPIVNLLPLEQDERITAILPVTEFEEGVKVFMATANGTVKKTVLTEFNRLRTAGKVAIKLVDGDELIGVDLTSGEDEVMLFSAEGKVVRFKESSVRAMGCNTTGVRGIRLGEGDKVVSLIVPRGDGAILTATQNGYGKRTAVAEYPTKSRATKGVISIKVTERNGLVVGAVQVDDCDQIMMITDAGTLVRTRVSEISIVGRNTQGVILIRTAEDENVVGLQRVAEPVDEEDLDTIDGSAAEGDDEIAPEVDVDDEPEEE
Protocol: Gyrase B and ParE monomers have only modest ATPase activity which is enhanced in the case of the holo enzymes and stimulated further by DNA. The phosphate released following conversion of ATP into ADP can be detected by the addition of malachite green solution and measured by monitoring the increase in absorbance at 600 nm. Topoisomerases were purchased from Inspiral is Ltd (Norwich, United Kingdom). For the Escherichia coli DNA gyrase ATPase assay, the final assay composition was 10 nM DNA gyrase (a complex of two GyrA and two GyrB subunits, the A2B2 complex) 3 mM Tris, pH 7.5, 24 mM KCl, 2 mM MgCl2, 6.5 % (w/v) glycerol, 0.01 mg/ml bovine serum albumin (BSA), 2 mM DTT (dithiothreitol), 9 mM ATP, and 5 % DMSO solution containing the compounds). For E. coli topoisomerase IV ATPase assay, the final assay composition was 10 nM topoisomerase IV (a complex consisting of two ParC and two ParE subunits), 40 mM HEPES-KOH, pH 7.6, 100 mM Potassium Glutamate, 25 mM Magnesium Acetate, […] single-stranded DNA, 0.2 mg/ml BSA, 10 mM DTT, 0.5 mM ATP, and 5 % DMSO solution containing the compounds. The reactions were started by the addition of the ATP, and the reaction mixtures were allowed to incubate at 30 °C for 60 mins. Reactions were stopped by adding Malachite green solution (0.034 % malachite green, 10 mM ammonium molybdate, 1M HCl, 3.4 % Ethanol, 0.01 % Tween 20). Color was allowed to develop for 5 min, and the absorbance at 600 nm was measured spectrophotometrically. The half-maximum (50 %) inhibitory concentration (IC50) values were determined from the absorbance readings using no-compound and no-enzyme controls. The values reported are the averages of at least four independent experiments.
Based upon the antimicrobial screening data, target compounds 4a, 7c, and 13b were evaluated against DNA gyrase from Escherichia coli in the DNA supercoiling assay for studying their mechanism. The results are presented in Table 5(Tab. 5) as residual activities (RA is the percentage activity of the enzyme in the presence of 10 μM and 100 μM of compound).

SMILES | zone of inhibition at 5000 µg/mL [1] [mm] | zone of inhibition at 5000 µg/mL [2] [mm] | zone of inhibition at 5000 µg/mL [3] [mm] | zone of inhibition at 5000 µg/mL [4] [mm] | zone of inhibition at 5000 µg/mL [5] [mm] | zone of inhibition at 5000 µg/mL [6] [mm] | remaining activity at 10 µM [7] [%] | remaining activity at 100 µM [7] [%]
N#CC1=C(N)Oc2c(ccc3c(N)cccc23)C1c1ccc(F)cc1 (centres unmarked) [7c] | 18.2 | 21.3 | 18.6 | 20.1 | 17.8 | 16.2 | 125 | 128
N#CC1=C(N)Oc2c(N)cc3ccccc3c2C1c1ccc(F)cc1 (centres unmarked) [4a, 3,5-diamino-1-(4-fluorophenyl)-1H-benzo[f]chromene-2-carbonitrile] | 12.3 | 18.2 | 11.9 | – | 16.9 | 12.6 | 117 | 114
COc1ccc(N=Nc2cc3c(cc2O)OC(N)=C(C#N)C3c2ccc(F)cc2)cc1 (centres unmarked) [13b, 2-Amino-4-(4-fluoro-phenyl)-7-hydroxy-6-(4-methoxy-phenylazo)-4H-chromene-3-carbonitrile] | 16.3 | 19.7 | 17.8 | 17.3 | 17.5 | 15.2 | 137 | 127
N#CC1=C(N)Oc2c(N)cc3ccccc3c2C1c1ccc(Cl)cc1 (centres unmarked) [4b, 3,5-diamino-1-(4-chlorophenyl)-1H-benzo[f]chromene-2-carbonitrile] | 24.3 | 33.7 | 18.3 | 26.9 | 22.6 | 17.6 | – | –
Cc1ccc(C2C(C#N)=C(N)Oc3c(N)cc4ccccc4c32)cc1 (centres unmarked) [4c, 3,5-diamino-1-(p-tolyl)-1H-benzo[f]chromene-2-carbonitrile] | 20.2 | 19.4 | 15.3 | 18.6 | 18.2 | 16.9 | – | –
